{"source": "patent US6187906A", "about": "“Methods to improve neural outcome” (Aukland Uniservices Limited, priority 1998, dated 2001)", "key": {"[1]": {"assay": "[3H]-GPE quantitative receptor autoradiography in coronal brain sections", "format": "binding, rat", "details": "1 hour room temperature, right side neurons absent due to injury, little reaction", "procedure": "A histological experiment to locate GPE binding sites within the rat brain employed quantitative receptor autoradiography to locate [3H]-GPE binding in coronal sections of the brain as previously described in Dragunow et al (1988, Brain Research 462, 252-257). Fresh frozen brain sections were cut on a cryostat and stored at -80 deg C. until use. Sections were then thawed and pre-incubated with 50 mM Tris HCl (pH 7.4) for 10 minutes at room temperature (250 μl per section). Sections were then dried and 250 μl per section of 5×10^5 counts/min^-1 of [3H]-GPE also made up in Tris HCl buffer (50 mM, pH 7.4) was added for 1 hour at room temperature. Sections were then washed two times for one minute each in ice-cold Tris-HCl followed by one rinse for 1 minute in ice-cold distilled water. Sections were then dried overnight at 4 deg C. and apposed to [3H] sensitive film for 2 weeks, and then developed to produce autoradiograms."}, "[2]": {"tested_on": "TH positive neurons of the SNc", "assay": "6-OHDA lesion of medial forebrain bundle, TH neuron number and staining density in SNc (Experiment 6)", "format": "in vivo", "procedure": "A paired experimental design was used and the experimenter was blinded to the treatment groups. Eighteen male Wistar rats (50-60 days old, 280-310 g) were used for this study. 6-hydroxy dopamine (6-OHDA) was prepared as 8 μg in a base of 2 μl 0.9% saline containing 1% ascorbic acid. It was administered into the right medial forebrain bundle (MFB) using coordinates of AP +4.7 mm, R 1.6 mm, V -8 mm under anaesthesia of 3% halothane, 6-OHDA was injected into the right MFB using a Hamilton syringe (100 μl with a 30G needle) controlled by a microdialysis infusion pump at an infusion rate of 0.2 μl/minute. The infusion needle was then slowly withdrawn 5 minutes after infusion. The surgery procedures for the intracerebroventricular administration have been described by Guan et al (1993), Journal of Cerebral Blood Flow and Metab, 13, 609-616. Briefly, a guide cannula (21G, 6 mm) was fixed on the top of the dura with coordinates of AP +7.5 mm, R 1.5 mm immediately after the injection of 6-OHDA. Either GPE (3 μg/15 μl) or its vehicle were infused into the right lateral ventricle 2 hours later at an infusion rate of 2 μl/minute (Guan et al (1993)). Rats were then housed in a holding room with food and water ad libitum for the next 2 weeks.\nThe rats were then deeply anaesthetized with an overdose of pentobarbital and transcardially perfused with normal saline followed by 10% buffered formalin. The brains were removed from the skull and kept in the same fixative for the next 48 hours. A standard paraffin tissue preparation was used to process the tissue so that it could be used for immunohistochemistry. […]\nThe number of TH positive neurons on both sides of the SNc were counted using light microscopic examination (20×magnification) at three representative levels (AP +4.2, +3.8 mm and […]) (Paxinos, et al (1982) New York: Academic Press).\nThe average density from the background was also measured. […] The difference in average density between the background and TH immunostaining was calculated and used for data analysis. […]"}, "[3]": {"tested_on": "mesencephalic neurons (dopaminergic)", "assay": "Dopamine uptake in 6-OHDA treated embryonic mesencephalic cultures (Experiment 8)", "format": "cell-based, Wistar rat", "details": "0.01-100 μM GPE, 4 μM 6-OHDA", "protocol": "Wistar rat ventral mesencephali from E15 (E1=plug) fetuses were dissected, pooled, and gently dissociate by repeated trituration in 3 ml of sterile modified Krebs-Ringer medium (Gibco, Life Technologies Ltd., NZ) supplemented per liter with 50,000 IU penicillin, 50 mg streptomycin, 1.26 g NaHCO3, and 2.2 g glucose. 2 ml of media was added and the suspension allowed to stand for 7 minutes, after which the supernatant was centrifuged for 7 minutes at 350 xg. The pellet was resuspended in serum-containing media: MEM media with 50,000 IU penicillin, 50 mg streptomycin, 1.26 g NaHCO3 and 5% fetal calf serum (Gibco). Cells were seeded at 2.5-4.0×10^5 trypan-excluding viable cells/cm^2 in sterile 24 well plates precoated for two hours with 5 μg/ml poly-L lysine in H2 O. Cultures were allowed to recover for 24 h at 37° C. in a humidified 95% air: 5% CO2 incubator. […]\nCultures were assayed for dopamine uptake using a modified procedure of Prochiantz et al., 1981 (Nature, Vol. 293, No., 5833). […] The wells were then rinsed with 250 μl 1% Triton X-100 and the contents added to the appropriate scintillation vial containing 4 ml of Ready safe scintillation fluid (Beckman, Palo Alto, Calif.). […]"}, "[4]": {"tested_on": "neurons in the CA1-2 region of the hippocampus", "format": "in vivo, Wistar rats", "procedure": "The objective of this study was to compare the effects of treatment with GPE to that of a vehicle given 2 hours after an hypoxic-ischemic injury. The dose range of 2 to 200 μg was chosen to span a range of systemic doses that are greater than that required centrally (see experiment 3).\nUnilateral hypoxic-ischemic injury was induced in 21 day old, 45±5 g Wistar rats. The rats underwent unilateral carotid ligation under light halothane anaesthesia.\nFollowing one hour recovery they were placed in an incubator at 34 deg C. 85±5% humidity for one hour before the injury. They were subjected to […] inhalation hypoxia (Fi02.8.0%) and then returned to room temperature (22 deg C.) and normoxia. […]\nSurviving and dead neurons were discriminated using the thionin/acid fuchsin staining technique (Guan et al J Cereb Blood Flow Metab. 13:609-616 (1993). The results, in which the height of a point is given by the ratio as a percentage of live neurones in the CA1-2 region on the right side to the number on the left side are shown in FIG. 5. Column A is vehicle, column B is 2 μg of GPE, column C is 20 μg of GPE, and column D is 200 μg of GPE. In this figure, the P value (0.031) was calculated by a method using one way ANOVA comparing many groups after Arcsin transformation."}, "[5]": {"target": "IGF-1 receptor (Homo sapiens, UniProt P08069)", "sequence (P08069 31-736 limits assumed)": "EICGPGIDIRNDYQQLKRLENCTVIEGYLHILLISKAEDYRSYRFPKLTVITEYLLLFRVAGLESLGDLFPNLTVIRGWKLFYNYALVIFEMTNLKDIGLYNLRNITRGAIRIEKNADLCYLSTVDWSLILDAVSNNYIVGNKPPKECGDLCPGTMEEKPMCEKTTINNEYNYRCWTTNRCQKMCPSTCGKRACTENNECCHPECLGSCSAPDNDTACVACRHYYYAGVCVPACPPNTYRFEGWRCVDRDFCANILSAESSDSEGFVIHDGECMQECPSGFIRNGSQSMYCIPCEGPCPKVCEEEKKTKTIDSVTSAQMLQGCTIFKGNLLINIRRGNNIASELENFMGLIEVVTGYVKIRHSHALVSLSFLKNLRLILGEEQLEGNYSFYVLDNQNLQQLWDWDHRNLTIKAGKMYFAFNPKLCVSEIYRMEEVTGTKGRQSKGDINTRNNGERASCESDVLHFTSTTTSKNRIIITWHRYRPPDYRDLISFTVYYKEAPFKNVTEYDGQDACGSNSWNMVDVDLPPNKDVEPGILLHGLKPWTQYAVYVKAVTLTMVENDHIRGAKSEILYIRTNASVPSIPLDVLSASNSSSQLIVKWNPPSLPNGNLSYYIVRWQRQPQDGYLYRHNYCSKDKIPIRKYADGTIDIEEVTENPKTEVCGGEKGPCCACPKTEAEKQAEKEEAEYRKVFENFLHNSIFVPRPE", "sequence (P08069 741-1367 partner limits assumed)": "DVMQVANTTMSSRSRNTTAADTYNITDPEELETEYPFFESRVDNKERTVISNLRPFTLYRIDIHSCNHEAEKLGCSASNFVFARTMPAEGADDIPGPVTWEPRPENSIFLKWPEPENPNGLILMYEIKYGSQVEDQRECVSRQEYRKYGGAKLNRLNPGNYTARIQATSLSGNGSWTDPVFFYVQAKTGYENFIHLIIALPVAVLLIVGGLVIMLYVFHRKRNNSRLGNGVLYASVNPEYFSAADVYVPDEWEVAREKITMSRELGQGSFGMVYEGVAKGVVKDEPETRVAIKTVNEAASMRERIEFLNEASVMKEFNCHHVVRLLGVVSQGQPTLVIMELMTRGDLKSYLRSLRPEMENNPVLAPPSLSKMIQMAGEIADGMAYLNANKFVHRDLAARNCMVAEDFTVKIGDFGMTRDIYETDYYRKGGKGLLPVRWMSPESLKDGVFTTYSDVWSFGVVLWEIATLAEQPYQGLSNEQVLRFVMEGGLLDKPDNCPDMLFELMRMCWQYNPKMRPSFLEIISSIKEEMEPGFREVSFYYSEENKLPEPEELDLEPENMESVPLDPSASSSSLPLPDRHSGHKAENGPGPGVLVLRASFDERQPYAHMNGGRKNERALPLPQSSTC", "details": "cited from earlier work"}}}
{"smiles": "NCC(=O)N1CCC[C@H]1C(=O)N[C@@H](CCC(=O)O)C(=O)O", "note": "[GPE, gly-pro-glu]", "values": [{"measurement": "[3H]-GPE binding in hippocampus", "setting": "[1]", "result": "left hippocampus has bound the radioactive material"}, {"measurement": "TH immunoreactivity (density of TH immunostaining, R/L)", "setting": "[2]; caudal levels, 3 μg GPE, vehicle 16±11.2, mean ±SEM", "result": "99.6±27", "unit": "%"}, {"measurement": "neurons remaining in the ipsilateral SNc", "setting": "[2]; caudal levels, GPE 3 μg, vehicle 16.3±11.5", "result": "over 60.9±13.0%"}, {"measurement": "TH immunoreactivity (density of TH immunostaining)", "setting": "[2]; lesioned (right) side, 3 μg GPE icv 2 hours after 6-OHDA, 2 weeks", "result": "restored"}, {"measurement": "protection from 6-OHDA toxicity (dopamine uptake)", "setting": "[3]", "result": "protects mesencephalic neurons"}, {"measurement": "loss of neurons in the CA1-2 region of the hippocampus", "setting": "[4]; 20 μg GPE single intraperitoneal injection 2 hours after injury, 120 hrs, p<0.05", "result": "reduced the loss of neurons"}, {"measurement": "crossing of the blood-brain barrier", "setting": "[4]; rat, in vivo", "result": "can cross the blood-brain barrier"}, {"measurement": "binding to the IGF-1 receptor", "setting": "[5]", "result": "does not"}]}
